Experimental data: US20230181768A1, “TISSUE-TARGETING COMPLEX” (PHARMPUR GMBH, priority 2017, published 2023)
Entries after “also recorded” stand apart in the source; their conditions may differ. Like-named read-outs stand apart in the source and are kept apart here.

Experiments:
[1] = test system: ILM model substrate (silk granules); settings: for Ratio λmax with MS and reference 632-635 nm: 632 nm (7a), 634 nm (7b, 7d), 635 nm (7c); for binding to the model substrate (in words): UV/vis, before and after treatment with model substrate
Method: To examine the binding of various dyes to the ILM model substrate, UV/vis measurements of the dyes Brilliant Blue G (BBG), compounds 7a-d, and Indocyanine green (ICG) were performed at various concentrations both before and after treatment with the model substrate. The aim of these measurements is to compare the binding strength of the individual dyes.
Stock solutions of the dyes with a concentration of 5 mg/mL were prepared using phosphate-buffered saline (PBS) at physiological pH 7.4.
To ensure measurement is as accurate as possible, the dye-model substrate solutions and the references were not prepared separately, but likewise used as stock solutions.
Subsequently, 6 mg of ILM model substrate plus 6 mL of dye solution and a reference solution comprising only 6 mL of dye solution were stirred for exactly 10 minutes and then centrifuged together for 8 minutes at 6000 rpm. The solutions were photographed and the carefully decanted supernatants analyzed by UV/vis spectroscopy. The ratios of the absorption maxima λmax with the model substrate to the absorption maximum λmax of the reference were calculated. This allowed the binding strengths of the individual dyes to be compared.

[2] = Solubility / precipitation of dye in phosphate-buffered saline; type: physicochemical; settings: PBS
Source text: Indocyanine green is one of the most important dyes in chromovitrectomy, particularly in the field of ILM peeling. The dye does, however, give rise to some problems and also to handling difficulties. Although it has long since been used for staining the inner limiting membrane and epiretinal membranes, studies have shown the dye to have numerous disadvantages.

Row | SMILES | Ratio λmax with MS and reference 588 nm ([1]; 0.005 mg/mL in PBS pH 7.4) [%] | Ratio λmax with MS and reference 632-635 nm ([1]; 0.005 mg/mL in PBS pH 7.4) [%] | Ratio λmax with MS and reference 588 nm ([1]; 0.01 mg/mL in PBS pH 7.4) [%] | Ratio λmax with MS and reference 632-635 nm ([1]; 0.01 mg/mL in PBS pH 7.4) [%] | Ratio λmax with MS and reference 588 nm ([1]; 0.02 mg/mL in PBS pH 7.4) [%] | Ratio λmax with MS and reference 632-635 nm ([1]; 0.02 mg/mL in PBS pH 7.4) [%] | Ratio λmax with MS and reference 588 nm ([1]; 0.04 mg/mL in PBS pH 7.4) [%] | Ratio λmax with MS and reference 632-635 nm ([1]; 0.04 mg/mL in PBS pH 7.4) [%] | Ratio λmax with MS and reference 588 nm ([1]; 0.08 mg/mL in PBS pH 7.4) [%] | Ratio λmax with MS and reference 632-635 nm ([1]; 0.08 mg/mL in PBS pH 7.4) [%] | Ratio λmax with MS and reference 588 nm ([1]; 0.16 mg/mL in PBS pH 7.4) [%] | Ratio λmax with MS and reference 632-635 nm ([1]; 0.16 mg/mL in PBS pH 7.4) [%] | binding to the model substrate (in words) [1] | other results
1 | CCCC[N+](C)(C)CCCNc1ccc(NCCC[N+](C)(C)CCCC)c2c1C(=O)c1ccccc1C2=O [7a, N,N′=(((9,10-dioxo-9,10-dihydroanthracene-1,4-diyl)bis(azanediyl))bis(propane-3,1-diy1))bis(N,N-dimethylbutan-1-aminium) bromide] | 54 | 54 | 52 | 52 | 54 | 55 | 57 | 58 | 67 | 69 | 76 | 78 |  | 
2 | CCCCCCCC[N+](C)(C)CCCNc1ccc(NCCC[N+](C)(C)CCCCCCCC)c2c1C(=O)c1ccccc1C2=O [7b, N,N′-(((9,10-dioxo-9,10-dihydroanthracene-1,4-diyl)bis(azanediyl))bis(propane-3,1-diyl))bis(N,N-dimethyloctan-1-aminium) bromide] | 11 | 9 | 10 | 8 | 6 | 6 | 8 | 8 | 18 | 19 | 32 | 34 |  | 
3 | CCCCCCCCCC[N+](C)(C)CCCNc1ccc(NCCC[N+](C)(C)CCCCCCCCCC)c2c1C(=O)c1ccccc1C2=O [7c, N,N′=(((9,10-dioxo-9,10-dihydroanthracene-1,4-diyl)bis(azanediyl))bis(propane-3,1-diyl))bis(N,N-dimethyldecan-1-aminium) Bromide] | 48 | 37 | 21 | 17 | 7 | 7 | 4 | 5 | 8 | 10 | 13 | 17 |  | 
4 | CCCCCCCCCCCC[N+](C)(C)CCCNc1ccc(NCCC[N+](C)(C)CCCCCCCCCCCC)c2c1C(=O)c1ccccc1C2=O [7d, N,N′(((9,10-dioxo-9,10-dihydroanthracene-1,4-diyl)bis(azanediyl))bis(propane-3,1-diyl))bis(N,N-dimethyldodecan-1-aminium) Bromide] | 12 | 13 | 7 | 8 | 3 | 4 | 3 | 3 | 1 | 2 | 18 | 18 |  | 
5 | CCOc1ccc(Nc2ccc(/C(=C3C=C/C(=[N+](/CC)Cc4cccc(S(=O)(=O)[O-])c4)C=C/3C)c3ccc(N(CC)Cc4cccc(S(=O)(=O)[O-])c4)cc3C)cc2)cc1.[Na+] [BBG, Brilliant Blue G, reference compound] |  |  |  |  |  |  |  |  |  |  |  |  | good binding | binding of the dye ([1]; 0.005 mg/mL in PBS pH 7.4): 76%; Ratio λmax with MS and reference ([1]; 0.005 mg/mL in PBS pH 7.4, maximum about 585 nm): 24%; Ratio λmax with MS and reference ([1]; 0.01 mg/mL in PBS pH 7.4, maximum about 585 nm): 32%; Ratio λmax with MS and reference ([1]; 0.02 mg/mL in PBS pH 7.4, maximum about 585 nm): 44%; Ratio λmax with MS and reference ([1]; 0.04 mg/mL in PBS pH 7.4, maximum about 585 nm): 48%; binding of the dye ([1]; 0.08 mg/mL in PBS pH 7.4): 48%; Ratio λmax with MS and reference ([1]; 0.08 mg/mL in PBS pH 7.4, maximum about 585 nm): 62%
6 | CC1(C)C(/C=C/C=C/C=C/C=C2\N(CCCCS(=O)(=O)O)c3ccc4ccccc4c3C2(C)C)=[N+](CCCCS(=O)(=O)[O-])c2ccc3ccccc3c21 [ICG, Indocyanine green, reference compound] |  |  |  |  |  |  |  |  |  |  |  |  | positive binding | solubility in saline solutions / phosphate-buffered saline [2]: poor solubility; also recorded: causes the compound to precipitate; Ratio λmax with MS and reference ([1]; 0.005 mg/mL in double-distilled water, 779/780 nm): 47%; Ratio λmax with MS and reference ([1]; 0.01 mg/mL in double-distilled water, 779/780 nm): 95%; Ratio λmax with MS and reference ([1]; 0.02 mg/mL in double-distilled water, 779/780 nm): 42%; Ratio λmax with MS and reference ([1]; 0.04 mg/mL in double-distilled water, 779/780 nm): 85%
